This is an account of results in publication PMC3773576 (Cell Research, 2013).

The EC50 is the concentration giving half of the maximal effect.

Assay [1] concerns the target T1, KCNQ2 potassium channel (Kv7.2) (Homo sapiens, UniProt O43526). Kind of assay: whole-cell voltage clamp in CHO cells, with VSD mutagenesis. Format: cell-based.
The target in assay [2] is T1, KCNQ2 potassium channel (Kv7.2). Description: whole-cell voltage clamp in CHO cells. Format: cell-based.

T1 sequence (O43526 whole entry): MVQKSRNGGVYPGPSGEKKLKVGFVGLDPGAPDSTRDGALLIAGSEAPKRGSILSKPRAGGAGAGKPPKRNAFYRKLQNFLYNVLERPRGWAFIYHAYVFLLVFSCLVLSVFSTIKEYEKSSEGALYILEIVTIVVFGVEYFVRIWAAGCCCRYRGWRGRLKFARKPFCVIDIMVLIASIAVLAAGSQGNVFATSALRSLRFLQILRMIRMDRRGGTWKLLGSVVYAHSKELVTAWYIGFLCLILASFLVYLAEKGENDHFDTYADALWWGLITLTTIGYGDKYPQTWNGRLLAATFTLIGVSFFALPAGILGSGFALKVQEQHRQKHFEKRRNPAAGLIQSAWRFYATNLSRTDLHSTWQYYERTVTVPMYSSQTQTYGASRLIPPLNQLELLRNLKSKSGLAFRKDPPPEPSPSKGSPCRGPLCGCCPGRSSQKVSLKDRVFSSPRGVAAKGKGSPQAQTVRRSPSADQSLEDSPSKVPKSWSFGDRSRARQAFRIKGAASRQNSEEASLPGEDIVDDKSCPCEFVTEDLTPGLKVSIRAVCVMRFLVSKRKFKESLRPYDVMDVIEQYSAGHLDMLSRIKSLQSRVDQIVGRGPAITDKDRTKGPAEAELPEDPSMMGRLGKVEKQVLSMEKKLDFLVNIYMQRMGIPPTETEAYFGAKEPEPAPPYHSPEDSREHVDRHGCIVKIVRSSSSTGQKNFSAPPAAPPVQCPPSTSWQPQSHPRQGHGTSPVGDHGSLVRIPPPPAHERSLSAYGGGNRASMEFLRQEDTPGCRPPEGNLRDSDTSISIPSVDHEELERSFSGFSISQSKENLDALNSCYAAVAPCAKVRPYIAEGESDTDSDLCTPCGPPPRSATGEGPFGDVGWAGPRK

Take `O=C(Nc1ccc(Cl)nc1)c1ccc(F)cc1` [ztz240]: in assay [1], the EC50 turned out to be 2.81 µM.

Take `O=C(Nc1ccc(Cl)nc1)c1ccccc1` [YGP1, N-(6-Chloropyridin-3-yl)benzamide]: in assay [2], the “whole-cell voltage clamp in CHO cells” value was “Electrophysiological recording showed that YGP1 still exhibited potentiation activity on KCNQ2 as ztz240 did”.
